This note sets out measurements from patent US9409908B2 (priority 2012, dated 2016).

Assay [1] concerns the target purified human Factor XIa (Homo sapiens (Human), UniProt P03951). Put plainly: biochemical. The assay is classed as biochemical. The following applies: read-out: Factor XIa Ki.
Assay [2] concerns the target purified human plasma kallikrein (Homo sapiens (Human), UniProt P03952). Briefly: biochemical. Conditions: read-out: Plasma Kallikrein Ki. The assay is classed as biochemical.

Molecules are shown by their SMILES. Structures can show the parent of a compound that is named as a salt. A value given as a limit tells only on which side of the number the result lay.

purified human plasma kallikrein, sequence (P03952 whole entry, looked up): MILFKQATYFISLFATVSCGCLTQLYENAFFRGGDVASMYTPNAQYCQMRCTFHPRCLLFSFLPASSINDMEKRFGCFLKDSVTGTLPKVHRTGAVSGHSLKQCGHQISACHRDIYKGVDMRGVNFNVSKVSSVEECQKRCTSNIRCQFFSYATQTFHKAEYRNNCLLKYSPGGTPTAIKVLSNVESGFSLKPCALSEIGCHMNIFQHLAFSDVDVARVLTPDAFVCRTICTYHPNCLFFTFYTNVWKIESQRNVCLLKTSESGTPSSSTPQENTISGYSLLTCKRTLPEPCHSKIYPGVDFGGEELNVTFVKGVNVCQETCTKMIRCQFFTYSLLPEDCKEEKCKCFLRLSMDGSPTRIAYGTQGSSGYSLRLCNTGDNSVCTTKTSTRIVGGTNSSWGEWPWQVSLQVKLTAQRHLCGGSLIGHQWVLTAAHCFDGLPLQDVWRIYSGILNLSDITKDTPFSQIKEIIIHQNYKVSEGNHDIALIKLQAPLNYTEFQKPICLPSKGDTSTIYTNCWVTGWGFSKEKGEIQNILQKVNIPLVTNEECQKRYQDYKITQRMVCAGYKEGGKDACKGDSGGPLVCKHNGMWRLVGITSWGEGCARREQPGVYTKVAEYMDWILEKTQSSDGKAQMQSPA
purified human plasma kallikrein, sequence (P03952 whole entry partner, looked up): as the sequence (P03952 whole entry, looked up) above
purified human Factor XIa, sequence (P03951 whole entry, looked up): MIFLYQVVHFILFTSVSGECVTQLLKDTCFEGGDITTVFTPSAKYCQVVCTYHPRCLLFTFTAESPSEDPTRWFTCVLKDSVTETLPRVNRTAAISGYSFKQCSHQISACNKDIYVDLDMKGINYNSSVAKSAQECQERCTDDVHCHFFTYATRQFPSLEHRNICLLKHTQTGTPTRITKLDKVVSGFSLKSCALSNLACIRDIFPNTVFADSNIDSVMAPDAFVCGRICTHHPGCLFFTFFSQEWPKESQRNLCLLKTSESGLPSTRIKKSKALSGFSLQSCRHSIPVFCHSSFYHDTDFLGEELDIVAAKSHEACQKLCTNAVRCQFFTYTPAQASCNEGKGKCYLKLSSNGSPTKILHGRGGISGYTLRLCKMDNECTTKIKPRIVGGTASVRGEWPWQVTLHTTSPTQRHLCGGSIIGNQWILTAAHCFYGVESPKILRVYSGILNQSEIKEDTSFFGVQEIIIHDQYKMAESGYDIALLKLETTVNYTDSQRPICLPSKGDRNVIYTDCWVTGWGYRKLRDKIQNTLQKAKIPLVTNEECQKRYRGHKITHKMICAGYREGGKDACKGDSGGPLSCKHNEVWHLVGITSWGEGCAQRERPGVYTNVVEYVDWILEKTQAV
purified human Factor XIa, sequence (P03951 whole entry partner, looked up): as the sequence (P03951 whole entry, looked up) above

Regarding `COC(=O)Nc1ccc2c(c1)NC(=O)[C@H](C)CCC[C@H](N1CCC(c3c(OC(F)F)ccc(Cl)c3F)=CC1=O)c1cc-2ccn1` [Example 32, Methyl N-[(10R,14S)-14-{4-[3-chloro-6-(difluoromethoxy)-2-fluorophenyl]-6-oxo-1,2,3,6-tetrahydropyridin-1-yl}-10-methyl-9-oxo-8,16-diazatricyclo[13.3.1.0^2,7]nonadeca-1(19),2,4,6,15,17-hexaen-5-yl]carbamate, TFA salt], the Ki in assay [1] is 0.06 nM; in assay [2], 6 nM.

Take `C[C@@H]1CCC[C@H](N2CCC(c3c(C#N)ccc(Cl)c3F)=CC2=O)c2cc(ccn2)-c2ccc(C(N)=O)cc2NC1=O` [Example 33, (10R,14S)-14-[4-(3-Chloro-6-cyano-2-fluorophenyl)-6-oxo-1,2,3,6-tetrahydropyridin-1-yl]-10-methyl-9-oxo-8,16-diazatricyclo[13.3.1.0^2,7]nonadeca-1(19),2,4,6,15,17-hexaene-5-carboxamide, TFA salt]: the figures for the Ki in assay [1] and in assay [2] were 2.02 nM and 3 nM, respectively.

As for `COC(=O)Nc1ccc2c(c1)NC(=O)[C@H](C)CCC[C@H](N1CCC(c3cc(Cl)ccc3C(F)(F)F)=CC1=O)c1cc-2ccn1` [Example 36, Methyl N-[(10R,14S)-14-{4-[5-chloro-2-(trifluoromethyl)phenyl]-6-oxo-1,2,3,6-tetrahydropyridin-1-yl}-10-methyl-9-oxo-8,16-diazatricyclo[13.3.1.0^2,7]nonadeca-1(19),2,4,6,15,17-hexaen-5-yl]carbamate, TFA salt], the Ki in assay [1] came out at 0.09 nM; in assay [2], 8 nM.

Consider `Cc1nnc(Nc2ccc3c(c2)NC(=O)[C@H](C)CCC[C@H](N2CCC(c4c(F)ccc(Cl)c4F)=CC2=O)c2ccnc-3c2)o1` [Example 37, (10R,14S)-14-[4-(3-Chloro-2,6-difluorophenyl)-6-oxo-1,2,3,6-tetrahydropyridin-1-yl]-10-methyl-5-[(5-methyl-1,3,4-oxadiazol-2-yl)amino]-8,18-diazatricyclo[13.3.1.0^2,7]nonadeca-1(19),2(7),3,5,15,17-hexaen-9-one, TFA salt], for which the Ki in assay [1] was 0.87 nM; in assay [2], 1 nM.

As for `CC1CCC[C@H](N2CCC(c3c(Br)ccc(Cl)c3F)=CC2=O)c2cc(ccn2)-c2ccc(-c3nnc[nH]3)cc2NC1=O` (stereo partly drawn) [Example 38, (14S)-14-[4-(6-Bromo-3-chloro-2-fluorophenyl)-6-oxo-1,2,3,6-tetrahydropyridin-1-yl]-10-methyl-5-(4H-1,2,4-triazol-3-yl)-8,16-diazatricyclo[13.3.1.0^2,7]nonadeca-1(19),2(7),3,5,15,17-hexaen-9-one, TFA salt], the Ki is 2.77 nM in assay [1] and 6 nM in assay [2].

For `C[C@@H]1CCC[C@H](N2CCC(c3c(F)ccc(Cl)c3F)=CC2=O)c2cc(ccn2)-c2ccc(Nc3nnc(C4CC4)o3)cc2NC1=O` [Example 39, (10R,14S)-14-[4-(3-Chloro-2,6-difluorophenyl)-6-oxo-1,2,3,6-tetrahydropyridin-1-yl]-5-[(5-cyclopropyl-1,3,4-oxadiazol-2-yl)amino]-10-methyl-8,16-diazatricyclo[13.3.1.0^2,7]nonadeca-1(19),2(7),3,5,15,17-hexaen-9-one, TFA salt], the Ki amounted to 0.67 nM in assay [1] and 2 nM in assay [2].

Turning to `COCc1nnc(Nc2ccc3c(c2)NC(=O)[C@H](C)CCC[C@H](N2CCC(c4c(F)ccc(Cl)c4F)=CC2=O)c2cc-3ccn2)o1` [Example 41, (10R,14S)-14-[4-(3-Chloro-2,6-difluorophenyl)-6-oxo-1,2,3,6-tetrahydropyridin-1-yl]-5-{[5-(methoxymethyl)-1,3,4-oxadiazol-2-yl]amino}-10-methyl-8,16-diazatricyclo[13.3.1.0^2,7]nonadeca-1(19),2,4,6,15,17-hexaen-9-one, TFA salt], the Ki in assay [1] amounted to 0.69 nM; in assay [2], 2 nM.

Take `C[C@@H]1CCC[C@H](N2CCC(c3c(Br)ccc(Cl)c3F)=CC2=O)c2cc(ccn2)-c2ccccc2NC1=O` [Example 45, (10R,14S)-14-[4-(6-Bromo-3-chloro-2-fluorophenyl)-6-oxo-1,2,3,6-tetrahydropyridin-1-yl]-10-methyl-8,16-diazatricyclo[13.3.1.0^2,7]nonadeca-1(19),2,4,6,15,17-hexaen-9-one, TFA salt]: the inhibition constant Ki in assay [1] was 2.08 nM; in assay [2], 7 nM.

With `C[C@@H]1CCC[C@H](N2CCC(c3c(C#N)ccc(C#N)c3F)=CC2=O)c2cc(ccn2)-c2ccccc2NC1=O` [Example 46, (10R,14S)-14-[4-(3,6-Dicyano-2-fluorophenyl)-6-oxo-1,2,3,6-tetrahydropyridin-1-yl]-10-methyl-8,16-diazatricyclo[13.3.1.0^2,7]nonadeca-1(19),2,4,6,15,17-hexaen-9-one, TFA salt], the Ki in assay [1] stood at 325 nM; in assay [2], 669 nM.

Regarding `C[C@@H]1CCC[C@H](N2CCC(c3cccc(Cl)c3F)=CC2=O)c2cc(ccn2)-c2ccccc2NC1=O` [Example 47, (10R,14S)-14-[4-(3-Chloro-2-fluorophenyl)-6-oxo-1,2,3,6-tetrahydropyridin-1-yl]-10-methyl-8,16-diazatricyclo[13.3.1.0^2,7]nonadeca-1(19),2,4,6,15,17-hexaen-9-one, TFA salt], the values for the Ki in assay [1] and in assay [2] were 86.3 nM and 66 nM, respectively.

For `C[C@@H]1CCC[C@H](N2CCC(c3c(C#N)ccc(Cl)c3F)=CC2=O)c2cc(ccn2)-c2ccccc2NC1=O` [Example 49, 4-Chloro-3-fluoro-2-{1-[(10R,14S)-10-methyl-9-oxo-8,16-diazatricyclo[13.3.1.0^2,7]nonadeca-1(19),2,4,6,15,17-hexaen-14-yl]-6-oxo-1,2,3,6-tetrahydropyridin-4-yl}benzonitrile, TFA salt], the Ki in assay [1] worked out at 1.06 nM; in assay [2], 3 nM.

Take `C[C@@H]1CCC[C@H](N2CCC(c3c(F)cccc3C#N)=CC2=O)c2cc(ccn2)-c2ccccc2NC1=O` [Example 50, 3-Fluoro-2-{1-[(10R,14S)-10-methyl-9-oxo-8,16-diazatricyclo[13.3.1.0^2,7]nonadeca-1(19),2,4,6,15,17-hexaen-14-yl]-6-oxo-1,2,3,6-tetrahydropyridin-4-yl}benzonitrile, TFA salt]: the Ki in assay [1] was found to be 102 nM; in assay [2], 130 nM.

For the compound `C[C@@H]1CCC[C@H](N2CCC(c3c(C4CC4)ccc(Cl)c3F)=CC2=O)c2cc(ccn2)-c2ccccc2NC1=O` [Example 52, (10R,14S)-14-[4-(3-Chloro-6-cyclopropyl-2-fluorophenyl)-6-oxo-1,2,3,6-tetrahydropyridin-1-yl]-10-methyl-8,16-diazatricyclo[13.3.1.0^2,7]nonadeca-1(19),2,4,6,15,17-hexaen-9-one, TFA salt], the Ki was determined as 45.6 nM in assay [1] and 193 nM in assay [2].

Take `C[C@@H]1CCC[C@H](N2CCC(c3c(F)ccc(Cl)c3F)=CC2=O)c2cc(ccn2)-c2ccc(NC(=O)OCCO)cc2NC1=O` [Example 54, 2-Hydroxyethyl N-[(10R,14S)-14-[4-(3-chloro-2,6-difluorophenyl)-6-oxo-1,2,3,6-tetrahydropyridin-1-yl]-10-methyl-9-oxo-8,16-diazatricyclo[13.3.1.0^2,7]nonadeca-1(19),2,4,6,15,17-hexaen-5-yl]carbamate, TFA salt]: the Ki in assay [1] is 0.08 nM; in assay [2], 1 nM.

Take `C[C@@H]1CCC[C@H](N2CCC(c3c(-c4cn[nH]c4)ccc(Cl)c3F)=CC2=O)c2cc(ccn2)-c2ccccc2NC1=O` [Example 55, (10R,14S)-14-{4-[3-Chloro-2-fluoro-6-(1H-pyrazol-4-yl)phenyl]-6-oxo-1,2,3,6-tetrahydropyridin-1-yl}-10-methyl-8,16-diazatricyclo[13.3.1.0^2,7]nonadeca-1(19),2,4,6,15,17-hexaen-9-one, TFA salt]: the Ki in assay [1] was 2.73 nM; in assay [2], 19 nM.

For the compound `C[C@@H]1CCC[C@H](N2CCC(c3c(-c4ccncc4)ccc(Cl)c3F)=CC2=O)c2cc(ccn2)-c2ccccc2NC1=O` [Example 56, (10R,14S)-14-{4-[3-Chloro-2-fluoro-6-(pyridin-4-yl)phenyl]-6-oxo-1,2,3,6-tetrahydropyridin-1-yl}-10-methyl-8,16-diazatricyclo[13.3.1.0^2,7]nonadeca-1(19),2,4,6,15,17-hexaen-9-one, TFA salt], the Ki in assay [1] was found to be 16.5 nM; in assay [2] it was 137 nM.

Turning to `C[C@@H]1CCC[C@H](N2CCC(c3c(-c4ccccc4)ccc(Cl)c3F)=CC2=O)c2cc(ccn2)-c2ccccc2NC1=O` [Example 57, (10R,14S)-14-[4-(3-Chloro-2-fluoro-6-phenylphenyl)-6-oxo-1,2,3,6-tetrahydropyridin-1-yl]-10-methyl-8,16-diazatricyclo[13.3.1.0^2,7]nonadeca-1(19),2,4,6,15,17-hexaen-9-one, TFA salt], the Ki in assay [1] stood at 35.6 nM; in assay [2], 351 nM.

In the case of `C[C@@H]1CCC[C@H](N2CCC(c3c(-c4cccnc4)ccc(Cl)c3F)=CC2=O)c2cc(ccn2)-c2ccccc2NC1=O` [Example 58, (10R,14S)-14-{4-[3-Chloro-2-fluoro-6-(pyridin-3-yl)phenyl]-6-oxo-1,2,3,6-tetrahydropyridin-1-yl}-10-methyl-8,16-diazatricyclo[13.3.1.0^2,7]nonadeca-1(19),2,4,6,15,17-hexaen-9-one, TFA salt], the Ki in assay [1] was found to be 15.1 nM; in assay [2] it was 179 nM.

In the case of `Cc1nn(C)cc1-c1ccc(Cl)c(F)c1C1=CC(=O)N([C@H]2CCC[C@@H](C)C(=O)Nc3ccccc3-c3ccnc2c3)CC1` [Example 60, (10R,14S)-14-{4-[3-Chloro-6-(1,3-dimethyl-1H-pyrazol-4-yl)-2-fluorophenyl]-6-oxo-1,2,3,6-tetrahydropyridin-1-yl}-10-methyl-8,16-diazatricyclo[13.3.1.0^2,7]nonadeca-1(19),2,4,6,15,17-hexaen-9-one, TFA salt], the figures for the Ki in assay [1] and in assay [2] were greater than 409 nM and 1090 nM, respectively.

Broadly, the Ki is the dissociation constant of the complex between target and ligand, obtained from inhibition or displacement.
